The values below come from PubChem BioAssay AID206 (DTP/NCI, 2004).

Where “and” joins values, the source holds several entries; their conditions need not be identical. Equal values may be shown once. Records with an inconclusive call do not appear.

The test has as its system nude mice, HT29 intrarenal xenograft, tumor weight T/C. The test is described as follows: NCI In Vivo Anticancer Drug Screen. Data for tumor model HT29;CX-1 Human Adenocarcinoma (MER+) (intrarenal inoculation) in NU/NU Swiss (nude) mice. As to conditions: endpoint: mean tumor weight change, higher = larger tumour. Put shortly: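 Tumor-bearing mice received test compound or vehicle, and tumor size or survival was recorded. Values are the treated-group measurement divided by the vehicle-treated control measurement.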

[1] abbreviates: dose: 37.5 mg/kg/injection, schedule: Q04DX004 (sc), vehicle: saline with Tween-80.
The mark [2] stands for this setting: dose: 75.0 mg/kg/injection, schedule: Q04DX004 (sc), vehicle: saline with Tween-80.
Where [3] appears, read: dose: 150.0 mg/kg/injection, schedule: Q04DX004 (sc), vehicle: saline with Tween-80.
Setting [4] is: dose: 300.0 mg/kg/injection, schedule: Q04DX004 (sc), vehicle: saline with Tween-80.
Where [5] appears, read: dose: 600.0 mg/kg/injection, schedule: Q04DX004 (sc), vehicle: saline with Tween-80.
The mark [6] stands for this setting: dose: 1200.0 mg/kg/injection, schedule: Q04DX004 (sc), vehicle: saline with Tween-80.
Where [7] appears, read: dose: 50.0 mg/kg/injection, schedule: Q04DX004 (sc), vehicle: Klucel (hydroxypropylcellulose) (HPC).

As for `CCCCCCCC(=O)[O][Hg][CH2]C1COC([CH2][Hg][O]C(=O)CCCCCCC)CO1` (stereo not given), the T/C was 110 % of control under setting [1], 120 % of control under setting [2], 47 % of control under setting [3] and 51 % of control under setting [4].

As to `CN1c2c(nc(N)[nH]c2=O)NCC1CCNc1ccc(C(=O)NC(CCC(=O)O)C(=O)O)cc1` (stereo not given), the T/C by setting is: (dose: 400.0 mg/kg/injection, schedule: Q01DX010 (sc), vehicle: saline) 33 % of control; (dose: 800.0 mg/kg/injection, schedule: Q01DX010 (sc), vehicle: saline) 51 % of control.

For `COc1cc2cc[n+](C)c(Cc3ccccc3)c2cc1OC`, the T/C is 73 % of control (dose: 18.75 mg/kg/injection, schedule: Q04DX004 (sc), vehicle: Klucel (hydroxypropylcellulose) (HPC)); 108 % of control (dose: 37.5 mg/kg/injection, schedule: Q04DX004 (sc), vehicle: Klucel (hydroxypropylcellulose) (HPC)); 54 % of control (dose: 75.0 mg/kg/injection, schedule: Q04DX004 (sc), vehicle: Klucel (hydroxypropylcellulose) (HPC)).

With `O=c1cc(-c2ccccc2)[nH]c2c1CCCC2`, the T/C (dose: 100.0 mg/kg/injection, schedule: Q04DX004 (sc), vehicle: saline with Tween-80) was 82 % of control; the T/C (dose: 200.0 mg/kg/injection, schedule: Q04DX004 (sc), vehicle: saline with Tween-80) is 70 % of control; the T/C (dose: 400.0 mg/kg/injection, schedule: Q04DX004 (sc), vehicle: saline with Tween-80) was 67 % of control; the T/C under setting [5] was 37 % of control; the T/C (dose: 800.0 mg/kg/injection, schedule: Q04DX004 (sc), vehicle: saline with Tween-80) is 68 % of control; the T/C under setting [6] is 58 % of control. In addition, the T/C (dose: 2400.0 mg/kg/injection, schedule: Q04DX004 (sc), vehicle: saline with Tween-80) was 101 % of control.

Take `CN(C)N=Nc1cccc(C(N)=O)c1`: the T/C under setting [7] was 92 % of control and 116 % of control.

In the case of `Cc1cc(SCC(=O)c2ccc(Br)cc2)cc(C)[o+]1`, the T/C (dose: 100.0 mg/kg/injection, schedule: Q01DX010 (sc), vehicle: saline) is 41 % of control and the T/C (dose: 200.0 mg/kg/injection, schedule: Q01DX010 (sc), vehicle: saline) was 76 % of control.

For `N#CN=[N+]([O-])c1ccc(C(=O)O)cc1`, for the setting “dose: 45.0 mg/kg/injection, schedule: Q04DX004 (sc), vehicle: Klucel (hydroxypropylcellulose) (HPC)”, the T/C is 60 % of control.

`c1ccc2c(NCCCCCCCCNc3c4ccccc4nc4ccccc34)c3ccccc3nc2c1`: the T/C (dose: 10.0 mg/kg/injection, schedule: Q01DX010 (sc), vehicle: Klucel (hydroxypropylcellulose) (HPC)) was 67 % of control; the T/C (dose: 20.0 mg/kg/injection, schedule: Q01DX010 (sc), vehicle: Klucel (hydroxypropylcellulose) (HPC)) is 44 % of control; the T/C (dose: 40.0 mg/kg/injection, schedule: Q01DX010 (sc), vehicle: Klucel (hydroxypropylcellulose) (HPC)) was 82 % of control.

Regarding `O=C1NC(O)CCN1C1OC(CO)C(O)C1O` (stereo not given), the T/C was 83 % of control (dose: 200.0 mg/kg/injection, schedule: Q01DX010 (sc), vehicle: water); 70 % of control (dose: 400.0 mg/kg/injection, schedule: Q01DX010 (sc), vehicle: water); 63 % of control (dose: 800.0 mg/kg/injection, schedule: Q01DX010 (sc), vehicle: water); 67 % of control (dose: 1600.0 mg/kg/injection, schedule: Q01DX010 (sc), vehicle: water).

`C1=CCOCOC1`: the T/C is, setting by setting: under setting [1], 69 % of control; under setting [2], 70 % of control; under setting [3], 68 % of control; under setting [4], 72 % of control.

For the molecule `NC(=O)c1ncn2c(=O)n(CCCl)nnc12`, the T/C is, setting by setting: (dose: 25.0 mg/kg/injection, schedule: Q04DX004 (sc), vehicle: suspension in saline) 214 % of control; (dose: 50.0 mg/kg/injection, schedule: Q04DX004 (sc), vehicle: suspension in saline) 72 % of control.

`COC(=O)C(F)C(Br)C(=O)OC` (stereo not given): the T/C was 207 % of control (dose: 9.37 mg/kg/injection, schedule: Q04DX004 (sc), vehicle: saline with Tween-80); 68 % of control (dose: 18.75 mg/kg/injection, schedule: Q04DX004 (sc), vehicle: saline with Tween-80); 223 % of control under setting [1].

Consider `COc1ccc(Cl)[n+]([O-])n1`, for which the T/C under setting [7] is 64 % of control and the T/C (dose: 100.0 mg/kg/injection, schedule: Q04DX004 (sc), vehicle: Klucel (hydroxypropylcellulose) (HPC)) was 66 % of control.

With `CO[C@H](C(=O)[C@@H](O)[C@@H](C)O)[C@@H]1Cc2cc3cc(OC4CC(OC5CC(O)C(O)C(C)O5)C(O)C(C)O4)c(C)c(O)c3c(O)c2C(=O)[C@H]1OC1CC(OC2CC(OC3CC(C)(O)C(O)C(C)O3)C(O)C(C)O2)C(O)C(C)O1` (stereo not given in full), the T/C is 87 % of control (dose: 0.25 mg/kg/injection, schedule: Q04DX004 (sc), vehicle: saline); 53 % of control (dose: 0.5 mg/kg/injection, schedule: Q04DX004 (sc), vehicle: saline); 54 % of control (dose: 1.0 mg/kg/injection, schedule: Q04DX004 (sc), vehicle: saline); -80 % of control (dose: 2.0 mg/kg/injection, schedule: Q01DX010 (sc), vehicle: saline); 61 % of control (dose: 2.0 mg/kg/injection, schedule: Q04DX004 (sc), vehicle: saline).

`Cc1ccc(C2NC(=S)N3C(c4ccc(C)cc4)NC(=S)N23)cc1` (stereo not given): the T/C (dose: 300.0 mg/kg/injection, schedule: Q04DX004 (sc), vehicle: Klucel (hydroxypropylcellulose) (HPC)) was 75 % of control; the T/C (dose: 600.0 mg/kg/injection, schedule: Q04DX004 (sc), vehicle: Klucel (hydroxypropylcellulose) (HPC)) was 80 % of control; the T/C (dose: 1200.0 mg/kg/injection, schedule: Q04DX004 (sc), vehicle: Klucel (hydroxypropylcellulose) (HPC)) is 69 % of control; the T/C (dose: 2400.0 mg/kg/injection, schedule: Q04DX004 (sc), vehicle: Klucel (hydroxypropylcellulose) (HPC)) is 75 % of control.

Turning to `Cc1ccc(NC(=O)Oc2ccc(Br)cc2Br)c([N+](=O)[O-])c1`, the T/C under setting [4] was 35 % of control, the T/C under setting [5] was 52 % of control and the T/C under setting [6] is 69 % of control.

As to `COc1ccc2c(NCCCCCCNc3c4ccccc4nc4cc(OC)ccc34)c3ccccc3nc2c1`, the T/C by setting is: (dose: 0.62 mg/kg/injection, schedule: Q01DX010 (sc), vehicle: lactic acid) 87 % of control; (dose: 1.25 mg/kg/injection, schedule: Q01DX010 (sc), vehicle: lactic acid) 73 % of control; (dose: 2.5 mg/kg/injection, schedule: Q01DX010 (sc), vehicle: lactic acid) 71 % of control; (dose: 30.0 mg/kg/injection, schedule: Q01DX010 (sc), vehicle: lactic acid) 71 % of control.

As to `CCCCCCCCCCC(OC(C)=O)C1CCC(C2CCC(C(O)CCCCCCCCCCCCC3C=C(C)OC3=O)O2)O1` (stereo not given), the T/C runs as follows: (dose: 25.0 mg/kg/injection, schedule: Q04DX004 (sc), vehicle: water) 119 % of control; (dose: 50.0 mg/kg/injection, schedule: Q04DX004 (sc), vehicle: water) 92 % of control.

With `CCCCNC(C)C1(O)Cc2c(O)c3c(c(O)c2C(OC2CC(N)C(O)C(C)O2)C1)C(=O)c1c(OC)cccc1C3=O` (stereo not given), the T/C (dose: 100.0 mg/kg/injection, schedule: Q01DX010 (sc), vehicle: water) is 44 % of control.

As for `CCCCCCCCCCCCCCCCCCCCCC(=O)Nc1ccn(C2OC(CO)C(O)C2O)c(=O)n1` (stereo not given), the T/C (dose: 225.0 mg/kg/injection, schedule: Q04DX004 (sc), vehicle: saline with Tween-80) is 65 % of control; the T/C (dose: 450.0 mg/kg/injection, schedule: Q04DX004 (sc), vehicle: saline with Tween-80) was 88 % of control; the T/C (dose: 900.0 mg/kg/injection, schedule: Q04DX004 (sc), vehicle: saline with Tween-80) is 64 % of control; the T/C (dose: 1800.0 mg/kg/injection, schedule: Q04DX004 (sc), vehicle: saline with Tween-80) was 72 % of control.

As for `COc1ccc(C[C@H](N)C(=O)NC2C(CO)OC(n3cnc4c(N(C)C)ncnc43)C2O)cc1` (stereo not given in full), the T/C was 174 % of control (dose: 100.0 mg/kg/injection, schedule: Q04DX004 (sc), vehicle: saline); 96 % of control (dose: 200.0 mg/kg/injection, schedule: Q04DX004 (sc), vehicle: saline); 185 % of control (dose: 400.0 mg/kg/injection, schedule: Q04DX004 (sc), vehicle: saline).

With `NC(=S)N/N=C/c1ccc(OC(=O)COc2ccc(Cl)cc2)cn1`, the T/C by setting is: under setting [4], 103 % of control; under setting [5], 150 % of control.

For the molecule `CO[C@@H]1[C@H](O)CC[C@]2(CO2)[C@H]1[C@@]1(C)O[C@@H]1CC=C(C)C`, the T/C under setting [2] was 108 % of control, the T/C under setting [3] is 179 % of control, the T/C under setting [4] was 108 % of control and the T/C under setting [5] was 110 % of control.
